We go through 26 compounds from publication PMC10350922, “Allosteric Inhibitors of Macrophage Migration Inhibitory Factor (MIF) Interfere with Apoptosis-Inducing Factor (AIF) Co-Localization to Prevent Parthanatos” (Journal of Medicinal Chemistry, 2023).

The target of the first assay is MIF.
Experiment: not given
Conditions: competitive MIF tautomerase inhibitor; cited from earlier work. Details: method as in PMID 32940040.
For the compound `COc1ccc(N2Cc3ccc(O)cc3OC2=O)cc1OC` [ZP143, reference compound], the Ki is 100 ± 10 nM.

Another assay has as its target T1, MIF (Homo sapiens, UniProt P14174).
T1 construct: made in house; host or cells: Escherichia coli BL21, pET-20b(p) plasmid
T1 sequence (P14174 2-115 limits assumed): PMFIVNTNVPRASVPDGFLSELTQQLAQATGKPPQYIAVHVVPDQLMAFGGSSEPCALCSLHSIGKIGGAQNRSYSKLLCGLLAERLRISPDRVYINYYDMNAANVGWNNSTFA
Briefly: MIF tautomerase activity assay (PP substrate, UV absorbance at 300 nm). It counts as biochemical. Particulars: 10 μM inhibitor; activity without inhibitor set to 100%; mean, n = 3. On the procedure: Recombinant human MIF with a C-terminal His-tag was expressed and purified following methods published previously.[47] The inhibitory potency for MIF tautomerase activity of the 1-phenyl-1H-1,2,3-triazole-4-carboxamides was measured after pre-incubation with MIF. The MIF-catalyzed PP tautomerization was measured by the corresponding change in UV absorbance over the first 3 min of the reaction.[48] Initial screening of the inhibitory potency was performed at 10 μM inhibitor concentration.
Inhibition of the tautomerase activity and kinetics of MIF was measured using […] (PP) as a substrate. A stock solution was prepared by mixing PP in 50 mM ammonium acetate buffer and adjusted to pH 6.0 using 1.0 M NaOH to provide a concentration of 20 mM. This solution was incubated overnight at 37 °C to allow equilibration of the keto and enol forms and then stored at 4 °C. For the assay, MIF stock solution (10 μL, 70 μM) was diluted in 20 mL of the boric acid buffer (435 mM H3BO3, 1 mM EDTA, pH 6.2) to provide 35 nM solution. The enzyme activity was determined by premixing 192 μL of the MIF dilution with 8 μL of the inhibitors dissolved in DMSO (1 mM). This mixture was preincubated for 10 min. Next, 50 μL of the mixture was mixed with 50 μL of 2 mM PP solution in ammonium acetate buffer. Subsequently, MIF tautomerase activity was monitored by the formation of the borate–enol complex, which was measured by the increase in UV absorbance at 300 nm. The increase in UV absorbance was measured over the first 10 min of incubation using a BioTek Synergy H1 Hybrid plate reader. MIF tautomerase activity in the presence of blank DMSO was set to 100% enzyme activity. […] Data from the first 3 min were used to calculate the initial velocities. All of the graphs were prepared in GraphPad Prism.
For the IC50 measurements, 1 mM solutions of the compounds were double-diluted 10 times in DMSO and subsequently, the MIF tautomerase activity was determined by premixing 190 μL of the MIF dilution with 10 μL of the inhibitors. This mixture was preincubated for 10 min and mixed with the 2 mM PP solution as described above.
Regarding `O=C(Nc1ccccc1)c1cn(-c2ccccc2)nn1` [Compound 6a, N,1-Diphenyl-1H-1,2,3-triazole-4-carboxamide], the remaining activity at 10 µM was determined as 84%.
For the compound `O=C(NCc1ccc(Cl)cc1)c1cn(-c2ccc(F)cc2)nn1` [Compound 6q, N-(4-Chlorobenzyl)-1-(4-fluorophenyl)-1H-1,2,3-triazole-4-carboxamide], the remaining activity at 10 µM worked out at 58%.
Same read-out and setting: as for `COC(=O)C(Cc1ccccc1)NC(=O)c1cn(-c2ccc(Cl)c(Cl)c2)nn1` (centres unmarked) [Compound 6j, Methyl-(1-(3,4-dichlorophenyl)-1H-1,2,3-triazole-4-carbonyl)phenylalaninate], the figure is 58%; as for `O=C(NCCc1ccccc1Cl)c1cn(-c2cccc(Cl)c2)nn1` [Compound 6t, N-(2-Chlorophenethyl)-1-(3-chlorophenyl)-1H-1,2,3-triazole-4-carboxamide], 66%; as for `COc1ccccc1-n1cc(C(=O)Nc2ccc(Cl)cc2)nn1` [Compound 6d, N-(4-Chlorophenyl)-1-(2-methoxyphenyl)-1H-1,2,3-triazole-4-carboxamide], 87%.
Same read-out and setting: the result for `O=C(NCc1ccc(Cl)cc1)c1cn(-c2ccc(Cl)cc2)nn1` [Compound 6r, N-(4-Chlorobenzyl)-1-4-chlorophenyl-1H-1,2,3-triazole-4-carboxamide] reads 57%.
For the compound `O=C(NCCc1ccccc1)c1cn(-c2cccc3ncccc23)nn1` [Compound 6u, N-Phenethyl-1-(quinolin-5-yl)-1H-1,2,3-triazole-4-carboxamide], the remaining activity at 10 µM is 66%.
With `O=C(CCc1ccco1)NCc1cn(-c2ccc(Cl)c(Cl)c2)nn1` [Compound 6i], the remaining activity at 10 µM amounted to 90%.
Consider `O=C(Nc1ccccc1)c1ccc(-n2cc(C(=O)NCc3ccccc3)nn2)cc1` [Compound 6x, N-Benzyl-1-(4-(phenylcarbomyl)phenyl)-1H-1,2,3-triazole-4-carboxamide], for which the remaining activity at 10 µM came out at 14%.
On the same count and under the same terms, the result for `O=C(Nc1ccc(F)cc1)c1cn(-c2ccccc2)nn1` [Compound 6b, N-(4-Fluorophenyl)-1-phenyl-1H-1,2,3-triazole-4-carboxamide] reads 65%; that for `CC(NC(=O)c1cn(-c2ccc(C(=O)NC3CC3)cc2)nn1)c1ccccc1` (centres unmarked) [Compound 6w, 1-(4-(Cyclopropylcarbamoyl)phenyl)-N-(1-phenylethyl)-1H-1,2,3-triazole-4-carboxamide], 39%; that for `Cc1ccc(-n2cc(C(=O)Nc3ccc(F)cc3)nn2)cc1C` [Compound 6g, 1-(3,4-Dimethylphenyl)-N-(4-fluorophenyl)-1H-1,2,3-triazole-4-carboxamide], 54%.
As to `O=C(NC1CCCC1)c1cn(-c2ccc(Cl)c(Cl)c2)nn1` [Compound 6k, N-Cyclopentyl-1-(3,4-dichlorophenyl)-1H-1,2,3-triazole-4-carboxamide], the remaining activity at 10 µM stood at 50%.
Still for that read-out and setting: as for `O=C(NCCc1ccccc1)c1cn(-c2cccc(Cl)c2)nn1` [Compound 6s, 1-(3-Chlorophenyl)-N-phenethyl-1H-1,2,3-triazole-4-carboxamide], the figure is 40%; as for `CCc1ccc(NC(=O)c2cn(-c3ccc(F)cc3[N+](=O)[O-])nn2)cc1` [Compound 6p, N-(4-Ethylphenyl)-1-(4-fluoro-2-nitrophenyl)-1H-1,2,3-triazole-4-carboxamide], 45%; as for `O=C(NCCc1ccccc1Cl)c1cn(-c2ccc(Cl)c(Cl)c2)nn1` [Compound 6h, N-(2-Chlorophenethyl)-1-(3,4-dichlorophenyl)-1H-1,2,3-triazole-4-carboxamide], 65%.
Take “N-(4-Bromophenyl)-1-(4-cyanophenyl)-1H-1,2,3-triazole-4-carboxamide [Compound 6o]”: the “Activity of MIF (%)” value was 44%.
Regarding `O=C(Nc1ccc(Br)cc1)c1cn(-c2ccccc2)nn1` [Compound 6c, N-(4-Bromophenyl)-1-phenyl-1H-1,2,3-triazole-4-carboxamide], the remaining activity at 10 µM came out at 37%.
Still for that read-out and setting: the result for `N#Cc1cc(Cl)ccc1-n1cc(C(=O)Nc2ccc(F)cc2)nn1` [Compound 6n, 1-(4-Chloro-2-cyanophenyl)-N-(4-fluorophenyl)-1H-1,2,3-triazole-4-carboxamide] reads 47%; that for `COc1ccc(CNC(=O)c2cn(-c3ccc(Cl)c(Cl)c3)nn2)cc1OC` [Compound 6m, 1-(3,4-Dichlorophenyl)-N-(3,4-dimethoxybenzyl)-1H-1,2,3-triazole-4-carboxamide], 80%; that for `COC(=O)CC1CC(c2ccc(O)cc2)=NO1` (centres unmarked) [ISO-1, reference compound], 60%.
Same read-out and setting: as for `O=C(NCc1ccco1)c1cn(-c2ccc(Cl)c(Cl)c2)nn1` [Compound 6l, 1-(3,4-Dichlorophenyl)-N-(furan-2-ylmethyl)-1H-1,2,3-triazole-4-carboxamide], the figure is 38%.
Take `COc1ccccc1-n1cc(C(=O)NC(C)c2ccc(Br)cc2)nn1` (centres unmarked) [Compound 6e, N-(1-(4-Bromophenyl)ethyl)-1-(2-methoxyphenyl)-1H-1,2,3-triazole-4-carboxamide]: the remaining activity at 10 µM was 79%.
Regarding `Cc1ccc(-n2cc(C(=O)NCc3ccccc3)nn2)cc1C` [Compound 6v, N-Benzyl-1-(3,4-dimethylphenyl)-1H-1,2,3-triazole-4-carboxamide], the remaining activity at 10 µM came out at 21%.
Same read-out and setting: the result for `CCc1ccc(-n2cc(C(=O)Nc3cccc(F)c3)nn2)cc1` [Compound 6f, 1-(4-Ethylphenyl)-N-(3-fluorophenyl)-1H-1,2,3-triazole-4-carboxamide] reads 50%.

Staying with this assay, now noted: PP as substrate, 10 min preincubation; read-out: IC50, inhibition of MIF tautomerase activity.
For the compound `O=C(Nc1ccccc1)c1ccc(-n2cc(C(=O)NCc3ccccc3)nn2)cc1` [Compound 6x, N-Benzyl-1-(4-(phenylcarbomyl)phenyl)-1H-1,2,3-triazole-4-carboxamide], the IC50 amounted to 2500 ± 100 nM.
Same read-out and setting: the result for `Cc1ccc(-n2cc(C(=O)NCc3ccccc3)nn2)cc1C` [Compound 6v, N-Benzyl-1-(3,4-dimethylphenyl)-1H-1,2,3-triazole-4-carboxamide] reads 6500 ± 400 nM.

A further assay deals with HeLa cells. Briefly: Cell viability (MTS) assay, MNNG-induced parthanatos. It counts as cell-based. Conditions: MTS assay.
With `COc1ccc(N2Cc3ccc(O)cc3OC2=O)cc1OC` [ZP143, reference compound], the “Protective effect in MNNG-induced parthanatos” value was “no protective effect”.
